Source: US20140024041A1, “SOFT SUBSTRATE FOR CELL CULTURE AND PROCESS FOR PREPARING THE SAME” (COMMISSARIAT A L'ENERGIE ATOMIQUE ET AUX ENERGIES …, priority 2011, published 2014)

Assays:
MCF10A cells = test: Cell traction force measurement from crossbow micropattern bar shortening on PAA; format: cell-based, human
Experimental: Non-tumorigenic human epithelial cells from the mammary gland, MCF10A, were plated on the micropatterned PAA substrates. Cells specifically attached to the fibronectin coated micropatterns since non-exposed PAA regions prevented protein adsorption (FIG. 2D). The effect of micropattern geometry on cell traction forces orientation was tested on various shapes: disc, pacman and crossbow (FIG. 3A). Spread cells exerted traction forces on the micropattern that could be measured by looking at the displacement of fluorescent beads embedded in the PAA gel (see FIG. 3B and Material and Methods). Particle Image Velocimetry followed by individual particle tracking were used to measure bead displacements ((Marganski et al (2003) Methods Enzymol 361:197-211; Sabass et al (2008) Biophys J 94(1):207-220). Force fields were calculated from the bead displacement fields by using the Fourier transform traction cytometry ((Sabass et al, supra; Butler et al (2002) Am J Physiol Cell Physiol 282(3):C595-605). Force fields exerted by individual cells were overlaid and averaged to quantify their reproducibility (FIG. 3C, D). On homogeneously coated regions cells developed forces that were randomly distributed from one cell to the other. In cells constrained on disc shaped micropatterns, forces were still randomly oriented but their magnitudes were lowered due to reduced cell spreading. In cells constrained on pacman shaped micropatterns, forces distribution was geometrically biased due to enhanced cell contraction above non adhesive regions. […] Importantly, most of the traction forces were reproducibly oriented upward, along the straight adhesive bar on the extremity of which the inventors measured the highest pressure (FIG. 3D). […]
When actin cables have an unpredictable spatial distribution, a given deformation cannot be directly assigned to a defined force magnitude. […] When the deformation was measured along the shortest, and therefore most contracted, cell axis, the correlation was improved (FIG. 4C). […]

[1] = system: MCF10A expressing inducible ErbB2 receptor; test: Cell traction force measurement from crossbow micropattern shortening, ErbB2 inducible cells; format: cell-based, human; settings: ErbB2 receptors activated with ligand, 1 μM, 48 hr before measurement, FIG. 5C
Excerpt: When actin cables have an unpredictable spatial distribution, a given deformation cannot be directly assigned to a defined force magnitude. Indeed, forces applied on adjacent adhesion sites both affect local deformations, due to the continuous nature of the substrate. Each deformation results from local and distant forces. So the calculation of the force field is highly dependent on the spatial distribution of force application sites and the relationship between deformation and forces varies from one cell to the other. The inventors hypothesized that in cells developing a reproducible architecture and a controlled pattern of force application, a given local deformation could be assigned to a defined value of the contractile force. […] When the deformation was measured along the shortest, and therefore most contracted, cell axis, the correlation was improved (FIG. 4C). […] On the crossbow, a single image acquisition was sufficient to measure the bar length and read the corresponding average cell traction force using the calibration curve (FIG. 5F). […]
The culture of MCF10A cells and the generation of ΔCK2β cell line were described previously (Deshiere et al (2008) Mol Cell Biochem 316(1-2):107-113). […] Substrate relaxation was assessed by detaching cells with trypsin. […]

Cc1ccc2c(c1)C(=O)C1(O)CCN(c3ccccc3)C1=N2 (stereo not shown) [Blebbistatin]
force magnitude decrease over time (MCF10A cells; 50 μM, single cell, FIG. 5B): follows a single exponential decay
force inhibition profile in response to increasing dose (MCF10A cells; increasing dose, crossbow bar length, FIG. 5A): matched the myosin II inhibition profile

TGFb1: known to induce epithelial to mesenchymal transition; from R&D systems
level of cell contraction vs WT cells (crossbow shortening) (MCF10A cells; 2 ng/mL for 2 days before plating, FIG. 5C): significantly higher level of cell contraction

CCC(C)(C)C(=O)C(=O)N1CCCC[C@H]1C(=O)O[C@H](CCc1ccc(OC)c(OC)c1)c1cccc(OCC(=O)NCCNC(=O)COc2cccc([C@@H](CCc3ccc(OC)c(OC)c3)OC(=O)[C@@H]3CCCCN3C(=O)C(=O)C(C)(C)CC)c2)c1 [AP 1510]
level of cell contraction vs WT cells [1]: no significant changes
